The values that follow come from patent US20070128719A1, “ISOLATION AND EXPANSION OF ANIMAL CELLS IN CELL CULTURES” (TissueTech, Inc., priority 2003, published 2007).

One assay deals with p38 MAPK. The assay is described as follows: Western blot of p38 MAPK phosphorylation in limbal epithelial cells expanded on intact AM. As to conditions: 10 μM.
Assay [1] concerns rabbit corneal limbal explant. The assay is described as follows: Rabbit limbal explant outgrowth on type I collagen coated insert, airlift culture. The class given is cell-based. The settings on record: SHEM. As for the experimental part: (§1) Human limbal tissue cubes can be placed in the alternative on the center of type I collagen coated inserts and cultured in SHEM medium under submerge and airlift manners, of which the later was also added with p38 inhibitor. In the submerge manner, 4 ml culture medium was added to the culture dish to cover the entire limbal explant. In the airlift manner, 2 ml culture medium was added so as to let the insert bottom sit on the air-liquid interface. That is, the explant was exposed to air, but the remaining explant stroma was submerged in the medium meniscus. In the airlift+p38 inhibitor group, p 38 inhibitor SB 203580 was added to culture medium at a concentration of 10 μM. Cultures were incubated at 37° C. under 5% CO2 and 95% air, and the medium is changed every 2 days. Rabbit limbal explants are also cultured in the same fashion as the human tissue. Limbal tissue cubes are placed on the center of type I collagen coated inserts and cultured under airlift manner in SHEM medium with or without p38 inhibitor SB203580 for 1 week.
To study the effect of p38 inhibitor on the outgrowth epithelial sheet, rabbit corneal limbal explant is cultured on the type I collagen coated insert under the airlift manner in SHEM medium for 1 week with or without addition of p38 inhibitor (FIG. 2).

The subject of assay [2] is corneal limbal epithelial cells. Kind of assay: Type IV collagen immunostaining of epithelial outgrowth from human limbal explants on denuded AM. The settings on record: explant on dAM in SHEM. The class given is cell-based.
The test system of assay [3] is limbal epithelial progenitor cells. The assay is described as follows: K12 and K10 immunostaining of human limbal explants in airlift culture. Format: cell-based. The settings on record: SHEM, 2 weeks, 10 μM. As for the experimental part:
as §1
To study the effect of p38 inhibitor on the differentiation of limbal epithelial progenitor cells, human corneal limbal explants were cultured under submerge and airlift manners, of which the later was added with or without p38 inhibitor, on type I collagen coated inserts in SHEM medium for 2 weeks. […]

The test system of another assay is p44/42 MAPK. The assay is described as follows: Western blot of p44/42 MAPK phosphorylation in limbal epithelial cells expanded on intact AM. The settings on record: 10 μM. The class given is cell-based, human. On the technique in general: A western blot detects proteins with antibodies after separation by electrophoresis.
The test system of another assay is human limbal explants. The assay is described as follows: Epithelial outgrowth from human limbal explants cultured on intact AM with kinase inhibitors. The class given is cell-based. The settings on record: 10 μM. As for the experimental part: Human AM was provided by Bio-Tissue (Miami, Fla.) and stored at −80° C. before use. AM was devitalized by freezing and thawing and washed three times with HBSS before being fastened onto a 30 mm culture insert, Millicel-CM (which generated an insert with 23 mm diameter covered by AM), and placed in a 6 well plate (Meller, D. and Tseng S C G, Invest Ophthalmol Vis Sci., 40:878-86, 1999).
After removal of excessive sclera, iris, corneal endothelium, conjunctiva, and Tenon's capsule, the limbal ring was separated by a 7.5 mm trephine from donor human corneas. Each limbal ring was rinsed 3 times with SHEM media. The limbal ring was then exposed for 10 min to 1.2 units/ml Dispase II in Mg^2+- and Ca^2+-free HBSS at 37° C. under 95% humidity and 5% CO2. Following three rinses with SHEM medium, each limbal ring was subdivided into two halves and each half further subdivided into 6 pieces of 1×1.5×2.5 mm explants. To eliminate variations of age, sex, and race, explants from the corresponding position of the same donor cornea were selected for the control and the experimental group, respectively. An explant was placed on the center of intact AM or plastic with the epithelial side facing up and cultured in SHEM medium. The experimental group was added with the inhibitor of desired concentration, while the control group was added with the same concentration of DMSO as the vehicle which was used to dissolve each inhibitor. The culture was maintained at 37° C. under 95% humidity and 5% CO2, the medium was changed every other day, and their outgrowth was monitored daily for 17 days using an inverted phase microscope (Nikon, Japan). The outgrowth area was digitized every other day by Adobe Photoshop 5.5 and analyzed by NIH ImageJ 1.30v (NIH, Bethesda, Md.).
All experiments were performed at least in triplicate. Summary data were reported as means±S.D., compiled and analyzed by MicroSoft Excel™ (MicroSoft, Redmont, Wash.). The mean and standard deviation were calculated for each group using the appropriate version of Student's unpaired t-test. Test results were reported as two-tailed p values, where p<0.05 was considered statistically significant.

As to `C[S+]([O-])c1ccc(-c2nc(-c3ccncc3)c(-c3ccc(F)cc3)[nH]2)cc1` (stereo not shown) [SB203580], the “phosphorylation at Thr180/Tyr182 of p38 MAPK” value in the assay on p38 MAPK was “abolished”. For the same compound, the “outgrowth rate based on outgrowth surface area” value in assay [1] (1 week) is on record as “not inhibited”. Besides, the “outgrowth sheet in H&E stained cross-sections” value in assay [1] (with p38 inhibitor) was “intact and consisted of uniformly two layers”. Moreover, in assay [2] (2 weeks), the “type IV collagen staining of outgrowth epithelial cells” value is given as “intracellular staining”. Further, in assay [2] (4 weeks), the “type IV collagen staining of outgrowth epithelial cells” value is given as “strong linear band staining”. Further, in assay [3], the “K10 positive cells in limbal and corneal epithelium” value is given as “no K10 positive cells”; the “K12 expression in the limbal epithelium” value is listed as “restored”. The “phosphorylation of p44/42 MAPK (Thr202 and Tyr204)” value in the assay with p44/42 MAPK was “did increase”. Moreover, in the assay with human limbal explants, the “day at which epithelial outgrowth was noted / started” value was 5 days. In addition, the epithelial outgrowth entry in the assay with human limbal explants (limbal explant on intact AM in SHEM, up to 17 days, vs DMSO control) is given as “did not change the outgrowth”.
